Reference: ChEMBL document CHEMBL4266018, “Discovery and Characterization of AZD6738, a Potent Inhibitor of Ataxia Telangiectasia Mutated and Rad3 Related (ATR) Kinase with Application as an Anticancer Agent” (J Med Chem, 2018)
Each block holds one compound with its values, some of them ahead of it.

Legend:
[1] = physchem; conditions: octanol/phosphate buffer, pH 7.4
[2] = Plasma concentration in Swiss nu/nu mouse xenografted with human LoVo cells at 12.5 mg/kg, po bid after 8 hrs; type: ADME, organism-based
[3] = in vitro; conditions: human, hepatocytes
[4] = Plasma concentration in Swiss nu/nu mouse xenografted with human LoVo cells at 25 mg/kg, po qd after 8 hrs; type: ADME, organism-based
[5] = in vitro; conditions: rat, hepatocytes
[6] = system: Rattus norvegicus; test: Dose normalized AUC in Han-Wistar rat at 4 umol/kg, po; type: ADME, organism-based; conditions: in vivo
[7] = Apparent permeability across apical to basolateral side in human Caco2 cells at 10 uM at pH 6.5; type: ADME, cell-based; conditions: Caco-2, pH 6.5
[8] = Apparent permeability across apical to basolateral side in human Caco2 cells at 10 uM at pH 7.4; type: ADME, cell-based; conditions: Caco-2, pH 7.4
[9] = Plasma concentration in Swiss nu/nu mouse xenografted with human LoVo cells at 25 mg/kg, po bid after 8 hrs; type: ADME, organism-based
[10] = system: Rattus norvegicus; test: Dose normalized AUC in Han-Wistar rat at 10 umol/kg, po; type: ADME, organism-based; conditions: in vivo
[11] = Oral bioavailability in Han Wistar rat at 20.3 umol/kg; type: ADME, organism-based; conditions: in vivo
[12] = Plasma concentration in Swiss nu/nu mouse xenografted with human LoVo cells at 50 mg/kg, po qd after 8 hrs; type: ADME, organism-based
[13] = Elimination half life in human; type: ADME, organism-based; conditions: in vivo, read-out: beta t1/2 (converted)
[14] = system: Rattus norvegicus; test: Clearance in Han Wistar rat at 8.55 umol/kg, iv or 20.3 umol/kg, po relative to liver blood flow; type: ADME, organism-based; conditions: in vivo
[15] = Volume of distribution at steady state in Han Wistar rat at 8.55 umol/kg, iv or 20.3 umol/kg, po; type: ADME, organism-based; conditions: in vivo, read-out: Vdss
[16] = system: Canis familiaris; test: Clearance in Beagle dog at 10.5 umol/kg, iv or […], po relative to liver blood flow; type: ADME, organism-based, Canis lupus familiaris; conditions: in vivo
[17] = Volume of distribution at steady state in Beagle dog at 10.5 umol/kg, iv or […], po; type: ADME, organism-based, Canis lupus familiaris; conditions: in vivo, read-out: Vdss
[18] = Plasma concentration in Swiss nu/nu mouse xenografted with human LoVo cells at 75 mg/kg, po qd after 8 hrs; type: ADME, organism-based
[19] = Intrinsic clearance in human hepatocytes assessed as per million cells at 1 uM; type: ADME, cell-based, Hepatocyte; conditions: read-out: CLH
[20] = Oral bioavailability in Beagle dog at […]; type: ADME, organism-based, Canis lupus familiaris; conditions: in vivo

SMILES: CS(=O)(=O)C1(c2cc(N3CCOCC3)nc(-c3cncc4[nH]ccc34)n2)CC1
- logD at 3 h, 10 µM [1]: 1.8

SMILES: CS(=O)(=O)C1(c2cc(N3CCOCC3)nc(-c3cccc4[nH]cnc34)n2)CC1
- logD at 3 h, 10 µM [1]: 2.2

SMILES: CC(=O)Nc1nc2ccccc2n1-c1nc(N2CCOC[C@H]2C)cc(C2(S(C)(=O)=O)CC2)n1
- logD at 3 h, 10 µM [1]: 1.8

SMILES: C[C@@H]1COCCN1c1cc(C2(S(C)(=N)=O)CC2)nc(-c2cncc3[nH]ccc23)n1 (some centres undefined)
- logD at 3 h, 10 µM [1]: 1.4

SMILES: CS(=O)(=O)C1(c2cc(N3CCOCC3)nc(-c3cccc4[nH]ccc34)n2)CC1
- logD at 3 h, 10 µM [1]: 2.3

SMILES: CNc1nc2ccccc2n1-c1nc(N2CCOC[C@H]2C)cc(C2([S@@](C)(=N)=O)CC2)n1
- logD at 3 h, 10 µM [1]: 2.1

SMILES: C[C@@H]1COCCN1c1cc(C2(S(C)(=O)=O)CC2)nc(-n2c(N)nc3ccccc32)n1
- logD at 3 h, 10 µM [1]: 2.5

SMILES: CS(=O)(=O)C1(c2cc(N3CC4CCC(C3)O4)nc(-c3cncc4[nH]ccc34)n2)CC1
- logD at 3 h, 10 µM [1]: 2.2

SMILES: CNC(=O)c1cc(-c2nc(N3CCOCC3)cc(C3(S(C)(=O)=O)CC3)n2)c2cc[nH]c2c1
- logD at 3 h, 10 µM [1]: 1.6

SMILES: CS(=O)(=O)C1(c2cc(N3C4CCC3COC4)nc(-c3cncc4[nH]ccc34)n2)CC1
- logD at 3 h, 10 µM [1]: 2.1

SMILES: CS(=O)(=O)C1(c2cc(C3=CCOCC3)nc(-c3cccc4[nH]ccc34)n2)CC1
- logD at 3 h, 10 µM [1]: 2.9

SMILES: CNc1nc2ccccc2n1-c1nc(N2CCOC[C@H]2C)cc(C2(S(C)(=O)=O)CC2)n1
- logD at 3 h, 10 µM [1]: 2.8
- hepatocyte CLint at 1 µM [3]: < 3 µL/min/1e6 cells
- Papp A→B at 10 µM [8]: 53 ×10⁻⁶ cm/s
- concentration at 8 h [9]: 8300 nM
- hepatocyte CLint at 1 µM [5]: 25 µL/min/1e6 cells
- AUC/dose [10]: 0.4 µM·h

SMILES: CS(=O)(=O)C1(c2cc(N3CCOCC3)nc(-n3c(N)nc4ccccc43)n2)CC1
- logD at 3 h, 10 µM [1]: 2.2

SMILES: CNc1nc2ccccc2n1-c1nc(N2CCOC[C@H]2C)cc(C2([S@](C)(=N)=O)CC2)n1
- logD at 3 h, 10 µM [1]: 2.1
- concentration at 8 h [12]: 940 nM
- hepatocyte CLint at 1 µM [3]: < 3 µL/min/1e6 cells
- Papp A→B at 10 µM [8]: 8 ×10⁻⁶ cm/s
- hepatocyte CLint at 1 µM [5]: 11 µL/min/1e6 cells
- AUC/dose [10]: 0.35 µM·h

More lines, now with the values ahead:

- logD at 3 h, 10 µM [1]: 1.8
SMILES: C[C@@H]1COCCN1c1cc(C2([S@@](C)(=N)=O)CC2)nc(-c2ccnc3[nH]ccc23)n1

- logD at 3 h, 10 µM [1]: 2.2
SMILES: CS(=O)(=O)C1(c2cc(N3CCOCC3)nc(-c3ccnc4[nH]ccc34)n2)CC1

- logD at 3 h, 10 µM [1]: 2.5
SMILES: C[C@@H]1COCCN1c1cc(C2([S@@+](C)[O-])CC2)nc(-c2ccnc3[nH]ccc23)n1

- logD at 3 h, 10 µM [1]: 2.5
SMILES: C[C@@H]1COCCN1c1cc(C2([S@+](C)[O-])CC2)nc(-c2ccnc3[nH]ccc23)n1

- logD at 3 h, 10 µM [1]: 2.1
- concentration at 8 h [2]: 220 nM
- hepatocyte CLint at 1 µM [3]: < 3 µL/min/1e6 cells
- concentration at 8 h [4]: 780 nM
- hepatocyte CLint at 1 µM [5]: 10 µL/min/1e6 cells
- AUC/dose [6]: 0.08 µM·h
- Papp A→B at 10 µM [7]: 8 ×10⁻⁶ cm/s
SMILES: C[C@@H]1COCCN1c1cc(C2(S(C)(=O)=O)CC2)nc(-c2cncc3[nH]ccc23)n1

- logD at 3 h, 10 µM [1]: 2.6
SMILES: C[C@@H]1COCCN1c1cc(C2(S(C)(=O)=O)CC2)nc(-c2ccnc3[nH]ccc23)n1

- bioavailability [11]: 67%
- logD at 3 h, 10 µM [1]: 1.9
- concentration at 8 h [12]: 2200 nM
- half-life [13]: 11 h
- hepatocyte CLint at 1 µM [3]: < 3 µL/min/1e6 cells
- CL [14]: 22%
- Papp A→B at 10 µM [8]: 12 ×10⁻⁶ cm/s
- Vd [15]: 3.1 L/kg
- CL [16]: 10%
- concentration at 8 h [9]: 740 nM
- Vd [17]: 1 L/kg
- concentration at 8 h [18]: 2600 nM
- hepatocyte CLint at 1 µM [19]: 2 µL/min/1e6 cells
- hepatocyte CLint at 1 µM [5]: < 3.5 µL/min/1e6 cells
- bioavailability [20]: 100%
- AUC/dose [10]: 0.8 µM·h
- Papp A→B at 10 µM [7]: 6.8 ×10⁻⁶ cm/s
SMILES: C[C@@H]1COCCN1c1cc(C2([S@](C)(=N)=O)CC2)nc(-c2cc[nH]c3nccc2-3)n1 [CERALASERTIB]

- logD at 3 h, 10 µM [1]: 2.2
SMILES: C[C@H]1COCCN1c1cc(C2(S(C)(=O)=O)CC2)nc(-c2cncc3[nH]ccc23)n1

- logD at 3 h, 10 µM [1]: 2.5
- concentration at 8 h [12]: 3500 nM
- Papp A→B at 10 µM [8]: 37 ×10⁻⁶ cm/s
- concentration at 8 h [9]: 1800 nM
- AUC/dose [6]: 1 µM·h
SMILES: C[C@@H]1COCCN1c1cc(C2(S(C)(=O)=O)CC2)nc(-c2cccc3[nH]ccc23)n1
